Values joined by “and” are separate entries in the source; they are usually repeats but may differ in a detail not shown here. Equal entries are not always repeated. Toxic doses and inconclusive results are not listed.
Test system: P388 leukemia ip, CD2F1 mice, survival T/C
Test: NCI In Vivo Anticancer Drug Screen. Data for tumor model P388 Leukemia (intraperitoneal) in CD2F1 (CDF1) mice
Conditions: endpoint: median survival time, higher = longer survival
How it was run: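 Mice carrying the transplanted tumor received test compound or vehicle. Survival was recorded in each group, and the value is the treated-group measurement divided by that of the vehicle-treated control group.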

[1] = dose: 50.0 mg/kg/injection, schedule: Q01DX009 (ip), vehicle: saline
[2] = dose: 100.0 mg/kg/injection, schedule: Q01DX009 (ip), vehicle: saline

Structure (SMILES): O=Cc1cc(/C=N/Nc2ccc([N+](=O)[O-])cc2[N+](=O)[O-])nc2[nH]c(=O)ccc12
- T/C (dose: 100.0 mg/kg/injection, schedule: Q04DX002 (ip), vehicle: saline with Tween-80): 97 % of control
- T/C (dose: 200.0 mg/kg/injection, schedule: Q04DX002 (ip), vehicle: saline with Tween-80): 104 % of control
- T/C (dose: 400.0 mg/kg/injection, schedule: Q04DX002 (ip), vehicle: saline with Tween-80): 95 % of control

Structure (SMILES): CCOc1cc2c(=O)[nH]cnc2c(OCC)c1OCC
- T/C (dose: 50.0 mg/kg/injection, schedule: Q01DX009 (ip), vehicle: saline with Tween-80): 106 % of control
- T/C (dose: 100.0 mg/kg/injection, schedule: Q01DX009 (ip), vehicle: saline with Tween-80): 100 % of control
- T/C (dose: 200.0 mg/kg/injection, schedule: Q01DX009 (ip), vehicle: saline with Tween-80): 98 % of control

Structure (SMILES): CCOC(=O)c1nc(OCC)nc(OCC)c1C#CCO
- T/C (dose: 12.5 mg/kg/injection, schedule: Q01DX009 (ip), vehicle: distilled water + Tween-80): 95 % of control
- T/C (dose: 25.0 mg/kg/injection, schedule: Q01DX009 (ip), vehicle: distilled water + Tween-80): 93 % of control
- T/C (dose: 50.0 mg/kg/injection, schedule: Q01DX009 (ip), vehicle: distilled water + Tween-80): 102 % of control
- T/C (dose: 100.0 mg/kg/injection, schedule: Q01DX009 (ip), vehicle: distilled water + Tween-80): 98 % of control

Structure (SMILES): CN(C)C1=NC(NCCc2ccccc2)(N(C)C)OC(N(C)C)=N1 (stereo not drawn)
- T/C (dose: 25.0 mg/kg/injection, schedule: Q01DX005 (ip), vehicle: saline): 100 % of control
- T/C (dose: 50.0 mg/kg/injection, schedule: Q01DX005 (ip), vehicle: saline): 107 % of control
- T/C (dose: 100.0 mg/kg/injection, schedule: Q01DX005 (ip), vehicle: saline): 100 % of control

Structure (SMILES): N#Cc1c(-c2ccc(Cl)c(Cl)c2)c(-c2ccc(Cl)c(Cl)c2)nn(CCO)c1=O
- T/C (dose: 25.0 mg/kg/injection, schedule: Q04DX002 (ip), vehicle: distilled water + Tween-80): 95 % of control
- T/C (dose: 50.0 mg/kg/injection, schedule: Q04DX002 (ip), vehicle: distilled water + Tween-80): 93 % of control
- T/C (dose: 100.0 mg/kg/injection, schedule: Q04DX002 (ip), vehicle: distilled water + Tween-80): 93 % of control
- T/C (dose: 200.0 mg/kg/injection, schedule: Q04DX002 (ip), vehicle: distilled water + Tween-80): 87 % of control

Structure (SMILES): O=C(O)Cc1ccc([N+](=O)[O-])cc1[N+](=O)[O-]
- T/C (dose: 12.5 mg/kg/injection, schedule: Q01DX009 (ip), vehicle: saline): 100 % of control
- T/C (dose: 25.0 mg/kg/injection, schedule: Q01DX009 (ip), vehicle: saline): 92 % of control
- T/C [1]: 100 % of control
- T/C [2]: 91 % of control

Structure (SMILES): CCCOCC(=O)O
- T/C [1]: 106 % of control
- T/C [2]: 110 % of control
- T/C (dose: 200.0 mg/kg/injection, schedule: Q01DX009 (ip), vehicle: saline): 101 % of control

Structure (SMILES): COc1cccc2c1C(=O)c1c(O)c3c(c(O)c1C2=O)C[C@@](O)(C(C)=O)C[C@@H]3OC1CC(NC=O)C(O)C(C)O1 (stereo partly drawn)
- T/C (dose: 1.56 mg/kg/injection, schedule: Q01DX009 (ip), vehicle: saline): 117 % of control
- T/C (dose: 3.13 mg/kg/injection, schedule: Q01DX009 (ip), vehicle: saline): 119 % of control
- T/C [1]: 153 % of control
- T/C [2]: 155 % of control

Structure (SMILES): CCOC(=O)C12C3C(=O)N(CC)C(=O)C3ON1OC1C(=O)N(CC)C(=O)C12 (stereo not drawn)
- T/C (dose: 60.0 mg/kg/injection, schedule: Q01DX005 (ip), vehicle: saline with Tween-80): 100 % of control
- T/C (dose: 120.0 mg/kg/injection, schedule: Q01DX005 (ip), vehicle: saline with Tween-80): 100 % of control
- T/C (dose: 240.0 mg/kg/injection, schedule: Q01DX005 (ip), vehicle: saline with Tween-80): 95 % of control

Structure (SMILES): Cc1ncc(N)c(C(=O)O)n1
- T/C (dose: 50.0 mg/kg/injection, schedule: Q01DX005 (ip), vehicle: Klucel (hydroxypropylcellulose) (HPC)): 98 % of control
- T/C (dose: 100.0 mg/kg/injection, schedule: Q01DX005 (ip), vehicle: Klucel (hydroxypropylcellulose) (HPC)): 98 % of control

Structure (SMILES): NC1C(N)C(N)C1N (stereo not drawn)
- T/C (dose: 12.5 mg/kg/injection, schedule: Q01DX005 (ip), vehicle: water): 102 % of control
- T/C (dose: 25.0 mg/kg/injection, schedule: Q01DX005 (ip), vehicle: water): 102 % of control
- T/C (dose: 50.0 mg/kg/injection, schedule: Q01DX005 (ip), vehicle: water): 102 % of control
- T/C (dose: 100.0 mg/kg/injection, schedule: Q01DX005 (ip), vehicle: water): 98 % of control
- T/C (dose: 200.0 mg/kg/injection, schedule: Q01DX005 (ip), vehicle: water): 94 % of control

Structure (SMILES): COC(=O)C(Cc1ccc(N(CCCl)CCCl)cc1)N=NNc1nc[nH]c1C(N)=O (stereo not drawn)
- T/C (dose: 12.5 mg/kg/injection, schedule: Q04DX003 (ip), vehicle: saline with Tween-80): 163 % of control
- T/C (dose: 25.0 mg/kg/injection, schedule: Q04DX003 (ip), vehicle: saline with Tween-80): 168 % of control
- T/C (dose: 33.0 mg/kg/injection, schedule: Q04DX003 (ip), vehicle: saline with Tween-80): 172 % of control
- T/C (dose: 50.0 mg/kg/injection, schedule: Q04DX003 (ip), vehicle: saline with Tween-80): 181 % of control and 213 % of control
- T/C (dose: 75.0 mg/kg/injection, schedule: Q04DX003 (ip), vehicle: saline with Tween-80): 231 % of control
